Structures are written as SMILES. Converted amounts (≈) assume the structure as drawn. The source made the active and inactive calls.

For one series, the system named is Candida duobushaemulonii. Description: Antifungal activity against multidrug-resistant Candida duobushaemulonii 391 assessed as inhibition in fungal growth incubated for 48 hrs by microplate reader analysis. The format is functional. The settings on record: Candidozyma duobushaemuli.
Another series deals with Curvularia lunata. Kind of series: Antifungal activity against Curvularia lunata NRRL6409 assessed as reduction in fungal growth incubated for 48 hrs by microplate reader analysis. Type of series: functional.
For series [1], the system named is Candida albicans. Kind of series: Antifungal activity against Candida albicans 5 assessed as inhibition in fungal growth incubated for 48 hrs by microplate reader analysis. The format is functional.
A further series deals with Rhizopus arrhizus. Description: Antifungal activity against Rhizopus oryzae FGSC 9543 assessed as reduction in fungal viability incubated for 48 hrs by microplate reader analysis. The format is functional.
A further series relates to Aspergillus fumigatus. Kind of series: Antifungal activity against Aspergillus fumigatus NRRL5109 infected in pig cornea assessed as suppression of fungal growth at 0.1 % administered post fungal infection measured after 4 days by microscopic analysis. Type of series: functional, organism-based. As to conditions: time 4.0 day.
Series [2] in a line: Toxicity against human eye model assessed as irritation at 10 to 1000 uM. The format is tissue-based. The settings on record: dose 10-1000 µM.
Series [3] deals with Candida albicans. Description: Antifungal activity against Candida albicans SC5314 infected in pig cornea assessed as suppression of fungal growth at 0.1 % administered post fungal infection measured after 4 days by microscopic analysis. The settings on record: time 4.0 day. Type of series: functional, organism-based.
Series [4] can be described thus: Toxicity against human skin model at 10 to 1000 uM. The format is tissue-based, Skin of body. As to conditions: dose 10-1000 µM.
The subject of series [5] is Candida albicans. Description: Antifungal activity against fluconazole-resistant Candida albicans SC5314 infected in pig cornea assessed as suppression of fungal growth at 0.1 % administered post fungal infection measured after 4 days by microscopic analysis. The format is functional, organism-based. As to conditions: time 4.0 day.

As to `C[C@@H]1[C@H](O)[C@@H](C)/C=C/C=C/C=C/C=C/C=C/C=C/C=C/[C@H](O[C@@H]2O[C@H](C)[C@@H](O)[C@H](N)[C@@H]2O)C[C@@H]2O[C@](O)(C[C@@H](O)C[C@@H](O)[C@H](O)CC[C@@H](O)C[C@@H](O)CC(=O)O[C@H]1C)C[C@H](O)[C@H]2C(=O)O` [AMPHOTERICIN B], the MIC80 – broadly, an inhibitory concentration at the 80% level, which refers to growth in some studies and to a panel of isolates in others – in the series on Candida duobushaemulonii stood at 5 µM (≈ 4.62 µg/mL); in the series on Curvularia lunata, 0.3 µM (≈ 0.277 µg/mL); in the series on Candida albicans [1] it was 0.6 µM (≈ 0.554 µg/mL). In the series on Curvularia lunata, the MFC (commonly the smallest concentration meeting the test's criterion for killing the fungus) came to 2.5 µM (≈ 2.31 µg/mL). In the series with Rhizopus arrhizus, the “MFC<=99.9” value amounted to 0.3 µM (≈ 0.277 µg/mL).
For `CC[C@H](C)C[C@H](C)C[C@H](C)C[C@@H]1NC(=O)[C@H](C(C)C)N(C)C(=O)[C@@H]([C@H](C)CC)OC(=O)[C@H](C(C)(C)O)N(C)C(=O)[C@H](CC(C)C)NC(=O)[C@H](C(C)C)N(C)C(=O)[C@H]([C@H](C)CC)NC(=O)[C@@H]2CCCN2C(=O)CN(C)C1=O`, the result with Aspergillus fumigatus, in the series on Candida albicans [3] and in the series with Candida albicans [5] was Active. For the same molecule, the MIC80 in the series with Candida duobushaemulonii was determined as 2.5 µM (≈ 2.69 µg/mL); in the series on Curvularia lunata, 0.3 µM (≈ 0.323 µg/mL); in the series on Candida albicans [1] it was 1.3 µM (≈ 1.4 µg/mL). Also, the Activity result in [2] and in [4] was “Non-Toxic” in each case. The MFC in the series on Curvularia lunata stood at 0.6 µM (≈ 0.645 µg/mL). Further, the “MFC<=99.9” value in the series with Rhizopus arrhizus was over 10 µM.
